# Measurements: publication PMC4162403 (Angewandte Chemie (International ed. in English), 2010)
# Biological target: TNF-α (Homo sapiens, UniProt P01375)
# Assay: inhibition of TNFR-1 binding to TNF-α, side-by-side experiment
# Conditions: read-out: % inhibition at 10 μM
# Sequence of TNF-α (P01375 77-233): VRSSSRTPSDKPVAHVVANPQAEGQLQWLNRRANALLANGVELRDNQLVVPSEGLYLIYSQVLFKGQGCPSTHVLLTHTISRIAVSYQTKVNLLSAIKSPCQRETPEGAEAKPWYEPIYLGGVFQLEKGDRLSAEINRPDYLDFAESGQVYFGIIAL
compound,measurement,value
Cc1cc2occ(CN(C)CCN(C)Cc3cn(-c4cccc(C(F)(F)F)c4)c4ccccc34)c(=O)c2cc1C [SPD304],inhibition at 10 µM,34%
